One compound from patent US11103448B2, “Manufacture of pharmaceutical compositions” (VECTURA LIMITED, priority 2003, dated 2021) can be followed below.

The data set in a line: Particle size distribution by Malvern particle sizer (dry powder). It counts as physicochemical. As to the method: The particle size distributions of these powdered materials indicate both the level of size reduction obtained by the co-milling, and the level of dispersion efficiency at varied pressures. The d(50) and d(97) plots provide a further indication of this dispersibility of the powders as a function of pressure.
Particle size distributions of the raw materials and selected formulations were determined by Malvern particle sizer, via the Scirroco dry powder disperser.
Twelve formulations were produced from the original powder, using the Hosokawa AS50 jet mill. Either the pure drug was passed through the mill or a blend of drug with 5% w/w of a force control agent added. The mill was used with a range of parameters. Primarily, these were injector air pressure, grinding air pressure and powder feed rate.

In the case of `CN1C(=O)CC(=O)N(c2ccccc2)c2cc(Cl)ccc21` [clobozam], the “d(50)” value by setting is: (clobozam after co-jet milling) “about 1 μm”; (clobozam before co-jet milling) “about 2.6 μm”.
